The IC50 is the concentration that gives 50% inhibition. The inhibition is how much of the control response was suppressed. By EC50 is commonly meant the concentration that produces a half-maximal response.

Assay [1] relates to ECa-109 cell line. Kind of assay: Antiproliferative activity against human EC109 cells assessed as inhibition of cell growth incubated for 48 hrs by MTT assay. Type of assay: functional, cell-based. As to conditions: ECa-109, 48 h.
Assay [2] concerns MGC-803. The experiment in a line: Antiproliferative activity against human MGC803 cells assessed as inhibition of cell growth incubated for 48 hrs by MTT assay. Type of assay: functional, cell-based. As to conditions: for IC50: MGC-803, 48 h.
The test system of assay [3] is PC-3. The experiment in a line: Antiproliferative activity against human PC3 cells assessed as inhibition of cell growth incubated for 48 hrs by MTT assay. It counts as functional, cell-based. As to conditions: PC-3, 48 h. On the technique in general: Formazan colour is commonly taken as a measure of viable cells.
Assay [4] relates to MGC-803. The experiment in a line: Upregulation in Bax protein expression in human MGC803 cells at 5 to 20 umol/l incubated for 48 hrs by Western blot analysis. It counts as functional, cell-based.
The target in assay [5] is T1, NEDD8-activating enzyme E1 regulatory subunit (Homo sapiens) (UniProt Q13564).
T1 sequence (whole entry): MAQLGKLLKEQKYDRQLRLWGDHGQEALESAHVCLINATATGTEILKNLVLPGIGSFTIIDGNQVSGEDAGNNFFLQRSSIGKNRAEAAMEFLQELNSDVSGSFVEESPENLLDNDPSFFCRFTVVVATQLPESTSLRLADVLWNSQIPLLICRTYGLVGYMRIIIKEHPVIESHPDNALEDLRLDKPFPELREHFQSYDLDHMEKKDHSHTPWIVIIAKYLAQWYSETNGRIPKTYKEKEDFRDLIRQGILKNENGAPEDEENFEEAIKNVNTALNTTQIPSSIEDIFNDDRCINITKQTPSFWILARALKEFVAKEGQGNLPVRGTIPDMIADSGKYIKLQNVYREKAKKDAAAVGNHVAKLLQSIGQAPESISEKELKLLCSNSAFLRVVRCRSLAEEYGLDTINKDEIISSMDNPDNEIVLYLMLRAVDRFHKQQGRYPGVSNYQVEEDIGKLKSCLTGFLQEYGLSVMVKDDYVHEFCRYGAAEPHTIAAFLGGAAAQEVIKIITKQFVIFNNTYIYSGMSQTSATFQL
Kind of assay: Inhibition of NAE-mediated neddylation in human MGC803 cells assessed as reduction in Nedd8-Cullin1 adduct formation by Western blot analysis. Type of assay: cell-based.

Assay [6] concerns MGC-803. Kind of assay: Antiproliferative activity against human MGC803 cells assessed as fold increase in cell growth at 10 umol/l incubated for 48 hrs by MTT assay relative to control. Type of assay: functional.
Assay [7] concerns MGC-803. The experiment in a line: Downregulation of CDK1 protein expression in human MGC803 cells at 5 to 20 umol/l incubated for 24 hrs by Western blot analysis. Type of assay: functional, cell-based. A general note: Immunoblotting shows a protein as a band on a membrane.
Assay [8] relates to MGC-803. Kind of assay: Induction of apoptosis in human MGC803 cells assessed as increase in cleaved caspase3 expression at 5 to 20 umol/l incubated for 48 hrs by Western blot analysis. Type of assay: functional, cell-based.
Assay [9] addresses T1, NEDD8-activating enzyme E1 regulatory subunit (Homo sapiens). Kind of assay: Inhibition of NAE-mediated neddylation in human MGC803 cells assessed as reduction in NAE1-Nedd8 adduct formation at 10 uM incubated for 24 hrs by Western blot analysis. Type of assay: cell-based. The note with it: MGC-803.
The target is the same in assay [10]. The experiment in a line: (§1) Inhibition of NAE-mediated neddylation in human MGC803 cells assessed as reduction in Nedd8-Ubcl2 adduct formation incubated for 24 hrs by Western blot analysis. Type of assay: cell-based. As to conditions: MGC-803.
The target of assay [11] is T2, NEDD8-activating enzyme E1 regulatory subunit (Homo sapiens, UniProt Q13564).
T2 sequence (Q13564 whole entry): T1 sequence (whole entry)
Described as §1. Type of assay: cell-based, MGC-803.

Assay [12] deals with MGC-803. Kind of assay: Induction of apoptosis in human MGC803 cells assessed as increase in cleaved PARP expression at 5 to 20 umol/l incubated for 48 hrs by Western blot analysis. It counts as functional, cell-based.
For assay [13], the target named is T1, NEDD8-activating enzyme E1 regulatory subunit (Homo sapiens). The experiment in a line: Inhibition of NAE-mediated neddylation in human MGC803 cells assessed as reduction in Nedd8-Cullin3 adduct formation at 10 uM incubated for 24 hrs by Western blot analysis. Type of assay: cell-based. As to conditions: MGC-803.
Assay [14] has the same target. The experiment in a line: Inhibition of NAE (unknown origin)-mediated neddylation assessed as decrease in Nedd8-Ubcl2 adduct formation at 5 uM by Western blot analysis.
For assay [15], the system named is MGC-803. Kind of assay: Downregulation of Cyclin B1 protein expression in human MGC803 cells at 5 to 20 umol/l incubated for 24 hrs by Western blot analysis. It counts as functional, cell-based.
Assay [16] relates to MGC-803. Kind of assay: Increase in ATF4 protein expression in human MGC803 cells at 5 to 20 umol/l incubated for 24 hrs by Western blot analysis. Type of assay: functional, cell-based.
The test system of assay [17] is MGC-803. Kind of assay: Downregulation of XIAP protein expression in human MGC803 cells at 5 to 20 umol/l incubated for 48 hrs by Western blot analysis. Type of assay: functional, cell-based.
Assay [18] relates to MGC-803. Kind of assay: Increase in DR5 protein expression in human MGC803 cells at 5 to 20 umol/l incubated for 24 hrs by Western blot analysis. It counts as functional, cell-based.
The subject of assay [19] is MGC-803. Kind of assay: Induction of apoptosis in human MGC803 cells at 5 to 20 umol/l incubated for 48 hrs by AnnexinV-FITC/PI staining based flow cytometric analysis relative to control. Type of assay: functional.
For assay [20], the system named is MGC-803. The experiment in a line: Inhibition of colony formation in human MGC803 cells at 0.5 uM incubated for 7 days by crystal violet staining based assay. It counts as functional, cell-based.
Assay [21] has as its system MGC-803. Kind of assay: Increase in p21 protein expression in human MGC803 cells at 5 to 20 umol/l incubated for 24 hrs by Western blot analysis. Type of assay: functional, cell-based.
The test system of assay [22] is MGC-803. The experiment in a line: Induction of cell cycle arrest in human MGC803 cells assessed as fold change in accumulation in G2/M phase at 5 to 20 umol/l incubated for 24 hrs by propidium iodide staining based flow cytometric analysis relative to control. It counts as functional. A general note: A flow cytometer gives signals particle by particle.
The test system of assay [23] is MGC-803. Kind of assay: Increase in Noxa protein expression in human MGC803 cells at 5 to 20 umol/l incubated for 24 hrs by Western blot analysis. Type of assay: functional, cell-based.
In assay [24] the target is T1, NEDD8-activating enzyme E1 regulatory subunit (Homo sapiens). Kind of assay: Inhibition of NAE-mediated neddylation in human MGC803 cells assessed as reduction in Nedd8-Ubcl2 adduct formation at 5 uM incubated for 24 hrs by Western blot analysis. It counts as cell-based. As to conditions: MGC-803.
In assay [25] the test system is MGC-803. The experiment in a line: Increase in CHOP protein expression in human MGC803 cells at 5 to 20 umol/l incubated for 24 hrs by Western blot analysis. It counts as functional, cell-based.
Assay [26] relates to MGC-803. Kind of assay: Induction of cell cycle arrest in human MGC803 cells assessed as accumulation in G2/M phase at 5 to 20 umol/l incubated for 24 hrs by propidium iodide staining based flow cytometric analysis. It counts as functional.
The target of assay [27] is T1, NEDD8-activating enzyme E1 regulatory subunit (Homo sapiens). The experiment in a line: Inhibition of NAE-mediated neddylation in human MGC803 cells assessed as reduction in Nedd8-Ubcl2 adduct formation at 10 uM incubated for 24 hrs by Western blot analysis relative to control. As to conditions: MGC-803. Type of assay: cell-based.
Assay [28] deals with MGC-803. The experiment in a line: Induction of apoptosis in human MGC803 cells assessed as increase in cleaved caspase9 expression at 5 to 20 umol/l incubated for 48 hrs by Western blot analysis. It counts as functional, cell-based.
Assay [29] has as its system MGC-803. The experiment in a line: Antiproliferative activity against human MGC803 cells assessed as inhibition of cell growth at 10 umol/l measured within 48 hrs of incubation by MTT assay. It counts as functional, cell-based.
Assay [30] has as its target T1, NEDD8-activating enzyme E1 regulatory subunit (Homo sapiens). The experiment in a line: Inhibition of NAE (unknown origin)-mediated neddylation assessed as decrease in Nedd8-Ubcl2 adduct formation at 10 uM by Western blot analysis.

Each structure is given as a SMILES string. The source made the active and inactive calls. No cut-off for these calls is given here.

In the case of `O=c1[nH]cc(F)c(=O)[nH]1` [FLUOROURACIL], the IC50 in assay [1] is 21.2 µM.
For the molecule `COc1cc(Nc2nnc(Cl)c(Nc3cc(OC)c(OC)c(OC)c3)n2)cc(OC)c1OC`, the IC50 in assay [2] is 24.3 µM; in assay [3], 34.3 µM; in [1] it was over 50 µM.
For `COc1cc(Nc2nc(Nc3ccc(Cl)cc3)nnc2Cl)cc(OC)c1OC`, in that order: 12.6 µM, 9.61 µM and 32.6 µM.
For `COc1cccc(Nc2nnc(Cl)c(Nc3cc(OC)c(OC)c(OC)c3)n2)c1`, in that order: 16.5 µM, 11.3 µM and 15.9 µM.
For `COc1cc(Nc2nc(Nc3ccc(Br)cc3)nnc2Cl)cc(OC)c1OC`, in that order: 11.3 µM, 8.99 µM and 41.6 µM.
Regarding `COc1cc(Nc2nc(Nc3ccc(C(N)=O)cc3)nnc2Cl)cc(OC)c1OC`, the results for the IC50 in [2], in [3] and in [1] were 15.2 µM, 32.1 µM and 42.4 µM, respectively.
Take `COc1cc(Nc2nc(Nc3ccc4[nH]ccc4c3)nnc2Cl)cc(OC)c1OC`: the result in [4], in assay [8], in assay [12], in [16], in assay [18] and in assay [21] was Active. In addition, the outcome in assay [23], in assay [25], in [26], in [28] and in assay [29] was Active. Also, the inhibition entry is “Tde” in assay [5] (MGC-803, TDE = time-dependent effect); “Dose-dependent effect” in [10]; “Dose-dependent effect” in [2]; 100% in assay [27]. The “fold change (FC)” value is 1.3 in assay [6] and 2 in [22]. Besides, the inhibition result in assay [7], in assay [9], in assay [13], in assay [14], in [15] and in [17] was “Active” throughout. Also, the inhibition entry in [20] and in [24] was “Active” throughout. Also, the 50% effective concentration (EC50) in [11] was found to be 3.56 µM. Moreover, the IC50 in assay [2] was 8.22 µM; in assay [3], 9.28 µM; in [1], 9.64 µM. Also, in assay [19], the Activity is recorded as 60%.
Take `COc1cc(Nc2nc(Nc3ccccc3)nnc2Cl)cc(OC)c1OC`: the IC50 in [2] stood at 8.75 µM; in assay [3], 9.75 µM; in [1], 12.6 µM.
In the same order, the values of `CCOC(=O)c1ccc(Nc2nnc(Cl)c(Nc3cc(OC)c(OC)c(OC)c3)n2)cc1` are 53.6 µM, 58.5 µM and 46.6 µM.
In the same order, the values of `COc1cc(Nc2nc(Nc3ccc4c(ccn4C)c3)nnc2Cl)cc(OC)c1OC` are 28.1 µM, 48.5 µM and 42.1 µM.
In the same order, the values of `COc1cc(Nc2nc(Nc3ccc(C(C)=O)cc3)nnc2Cl)cc(OC)c1OC` are 13 µM, 38.6 µM and 36.3 µM.
On to `COc1cc(Nc2nc(Nc3ccc(C)cc3)nnc2Cl)cc(OC)c1OC`, for which the IC50 worked out at 19.8 µM in assay [2], 14.3 µM in assay [3] and 27.3 µM in [1].
For `COc1ccc(Nc2nnc(Cl)c(Nc3cc(OC)c(OC)c(OC)c3)n2)cc1`, in that order: 18.9 µM, 13.5 µM and 22.3 µM.
Regarding `COc1cc(Nc2nc(Cl)nnc2Cl)cc(OC)c1OC`, the inhibition entry in assay [5] (MGC-803) is “Dose-dependent effect”.
On to `NS(=O)(=O)OC[C@@H]1C[C@@H](n2ccc3c(N[C@H]4CCc5ccccc54)ncnc32)C[C@@H]1O`, for which the inhibition result in assay [30] was “Active”.

The values are drawn from ChEMBL document CHEMBL4602611, “Discovery of 1,2,4-triazine-based derivatives as novel neddylation inhibitors and anticancer activity studies against gastric cancer MGC-803 cells” (Bioorg Med Chem Lett, 2020).
